Measurements as given in publication PMC3021692, “Synthesis and Pharmacological Evaluation of Novel Schiff Base Analogues of 3-(4-amino) Phenylimino) 5-fluoroindolin-2-one” (Journal of Young Pharmacists : JYP, 2010).
Entries after “also recorded” stand apart in the source; their conditions may differ.

What was measured:
Type in all cases: in vivo
Wistar albino mice = assay: Analgesic activity, tail-flick technique; settings: for Percent analgesic activity: mean ± SD (n = 6); for Analgesic activity (in words): tail-flick, structure-activity comparison within the series / vs diclofenac sodium
Method: (§1) The synthesized compounds were evaluated for analgesic, anti-inflammatory, and ulcerogenic index. […] The test compounds and the standard drugs were administered in the form of a suspension (1% carboxymethyl cellulose as a vehicle) by oral route for analgesic and anti-inflammatory but for ulcerogenicity studies by intraperitoneally as suspension in 10% v/v Tween-20. Each group consisted of six animals. The animals were procured from the C. L. Baid Metha College of pharmacy, Chennai, and were maintained in colony cages at 25 ±2°C, relative humidity of 45-55%, under a 12-h light and dark cycle; they were fed standard animal feed. All the animals were acclimatized for a week before use. The Institutional Animal Ethics Committee approved the protocol adopted for the experimentation of animals.
The analgesic activity was performed by tail-flick technique using Wistar albino mice (25-35 g) of either sex selected by the random sampling technique.[1314] Diclofenac sodium at a dose level of 10 mg/kg and 20 mg/kg was administered orally as reference drug for comparison. The test compounds at two dose levels (10, 20 mg/kg) were administered orally. The reaction time was recorded at 30 min, 1, 2, and 3 h after the treatment, and cut-off time was 10 s. The percent analgesic activity (PAA) was calculated by the following formula, where T1 is the reaction time (s) before treatment, and T2 is the reaction time (s) after treatment.

[1] = test system: carrageenan-induced paw edema in rats; assay: Anti-inflammatory activity, carrageenan-induced paw edema test; settings: for Percent anti-inflammatory activity (percent inhibition of paw edema): mean ± SD (n = 6)
Method: as §1
Anti-inflammatory activity was evaluated by carrageenan-induced paw edema test in rats.[15] Diclofenac sodium 10, 20 mg/kg was administered as a standard drug for comparison. The test compounds were administered at two dose levels (10 mg/kg, 20 mg/kg). The paw volumes were measured using the mercury displacement technique with the help of a plethysmograph (Model PLYAN; Buxco, USA) immediately before and 30 min, 1, 2, and 3 h after carrageenan injection. The percent inhibition of paw edema was calculated using the following formula.
Percent inhibition I = 100 1− (a−x) / (b−y)
Where x is the mean paw volume of rats before the administration of carrageenan and test compounds or reference compound (test group), a is the mean paw volume of rats after the administration of carrageenan in the test group (drug treated), b is the mean paw volume of rats after the administration of carrageenan in the control group, y is the mean paw volume of rats before the administration of carrageenan in the control group.

[2] = test system: Albino rats of Wistar strain; assay: Evaluation of ulcerogenicity index (pylorus ligation); parameters: scale not given here; settings: mean ± SD (n = 6)
Method: The synthesized compounds were evaluated for analgesic, anti-inflammatory, and ulcerogenic index. […] The test compounds and the standard drugs were administered in the form of a suspension (1% carboxymethyl cellulose as a vehicle) by oral route for analgesic and anti-inflammatory but for ulcerogenicity studies by intraperitoneally as suspension in 10% v/v Tween-20. Each group consisted of six animals. The animals were procured from the C. L. Baid Metha College of pharmacy, Chennai, and were maintained in colony cages at 25 ±2°C, relative humidity of 45-55%, under a 12-h light and dark cycle; they were fed standard animal feed. All the animals were acclimatized for a week before use. The Institutional Animal Ethics Committee approved the protocol adopted for the experimentation of animals. Ulceration in rats was induced as described by Goyal et al. Albino rats of Wistar strain weighing 150-200 g of either sex were divided into various groups each of six animals.[16] Control group of animals was administered only with 10% v/v Tween 80 suspension intraperitonially. One group was administered with aspirin (German Remedies) intraperitoneally at a dose of 200 mg/kg once daily for 3 days. The remaining group of animals was administered with test compounds intraperitoneally at a dose of 20 mg/kg. On fourth day, Pylorus was ligated as per the method of Shay et al.[17] Animals were fasted for 36 h before the pylorus ligation procedure. Four hours after the ligation, animals were sacrificed. The stomach was removed and opened along with the greater curvature. Ulcer index was determined by the method of Ganguly and Bhatnagar.[18]

[3] = 10 mg/kg oral, 30 min after treatment
[4] = 10 mg/kg oral, 1 h after treatment
[5] = 10 mg/kg oral, 2 h after treatment
[6] = 10 mg/kg oral, 3 h after treatment
[7] = 20 mg/kg oral, 30 min after treatment
[8] = 20 mg/kg oral, 1 h after treatment
[9] = 20 mg/kg oral, 2 h after treatment
[10] = 20 mg/kg oral, 3 h after treatment
[11] = 10 mg/kg oral, 30 min after carrageenan
[12] = 10 mg/kg oral, 1 h after carrageenan
[13] = 10 mg/kg oral, 2 h after carrageenan
[14] = 10 mg/kg oral, 3 h after carrageenan
[15] = 20 mg/kg oral, 30 min after carrageenan
[16] = 20 mg/kg oral, 1 h after carrageenan
[17] = 20 mg/kg oral, 2 h after carrageenan
[18] = 20 mg/kg oral, 3 h after carrageenan
[19] = test compounds 20 mg/kg intraperitoneally, pylorus ligated on fourth day

Row | Structure (SMILES) | Percent analgesic activity (Wistar albino mice; [3]) | Percent analgesic activity (Wistar albino mice; [4]) | Percent analgesic activity (Wistar albino mice; [5]) | Percent analgesic activity (Wistar albino mice; [6]) | Percent analgesic activity (Wistar albino mice; [7]) | Percent analgesic activity (Wistar albino mice; [8]) | Percent analgesic activity (Wistar albino mice; [9]) | Percent analgesic activity (Wistar albino mice; [10]) | Analgesic activity (in words) (Wistar albino mice) | Percent anti-inflammatory activity (percent inhibition of paw edema) [1, 11] | Percent anti-inflammatory activity (percent inhibition of paw edema) [1, 12] | Percent anti-inflammatory activity (percent inhibition of paw edema) [1, 13] | Percent anti-inflammatory activity (percent inhibition of paw edema) [1, 14] | Percent anti-inflammatory activity (percent inhibition of paw edema) [1, 15] | Percent anti-inflammatory activity (percent inhibition of paw edema) [1, 16] | Percent anti-inflammatory activity (percent inhibition of paw edema) [1, 17] | Percent anti-inflammatory activity (percent inhibition of paw edema) [1, 18] | Ulcer index [2, 19] | Anti-inflammatory activity compared to reference standard diclofenac sodium (in words) ([1]; carrageenan-induced paw edema in rats) | Ulcer index ([2]; diclofenac reference, dose not given)
1 | COc1ccc(C=Nc2ccc(N=C3C(=O)Nc4ccc(F)cc43)cc2)cc1 [Compound N7] | 34 ± 1.74 % | 43 ± 1.72 % | 45 ± 1.45 % | 29 ± 1.69 % | 47 ± 1.96 % | 52 ± 1.67 % | 56 ± 1.36 % | 44 ± 1.48 % | decreasing activity; also recorded: further decrease of activity | 36 ± 1.74 % | 42 ± 1.72 % | 45 ± 1.55 % | 33 ± 1.69 % | 44 ± 1.76 % | 55 ± 1.78 % | 58 ± 1.66 % | 41 ± 1.48 % | 0.78 ± 1.19 |  | 
2 | O=C1Nc2ccc(F)cc2C1=Nc1ccc(N=Cc2ccc([N+](=O)[O-])cc2)cc1 [Compound N8] | 39 ± 1.75 % | 46 ± 1.43 % | 48 ± 1.24 % | 36 ± 1.36 % | 48 ± 1.46 % | 51 ± 1.92 % | 54 ± 1.16 % | 39 ± 1.48 % | further decrease of activity | 40 ± 1.65 % | 44 ± 1.53 % | 48 ± 1.74 % | 36 ± 1.36 % | 49 ± 1.46 % | 52 ± 1.92 % | 56 ± 1.16 % | 39 ± 1.48 % | 0.92 ± 1.45 | equipotent | 
3 | O=C1Nc2ccc(F)cc2C1=Nc1ccc(N=Cc2ccc(Cl)cc2)cc1 [Compound N9] | 42 ± 1.82 % | 44 ± 1.72 % | 48 ± 1.59 % | 38 ± 1.72 % | 46 ± 1.68 % | 51 ± 1.46 % | 57 ± 1.18 % | 45 ± 1.32 % | decreasing activity | 38 ± 1.82 % | 44 ± 1.32 % | 48 ± 1.99 % | 38 ± 1.72 % | 46 ± 1.68 % | 51 ± 1.46 % | 57 ± 1.18 % | 45 ± 1.32 % | 0.75 ± 1.26 |  | 
4 | O=C1Nc2ccc(F)cc2C1=Nc1ccc(N=Cc2ccc(O)cc2)cc1 [Compound N10] | 43 ± 1.55 % | 46 ± 1.72 % | 49 ± 1.52 % | 38 ± 1.92 % | 48 ± 1.56 % | 52 ± 1.96 % | 58 ± 1.16 % | 42 ± 1.43 % |  | 43 ± 1.55 % | 49 ± 1.72 % | 54 ± 1.52 % | 39 ± 1.92 % | 48 ± 1.56 % | 54 ± 1.65 % | 58 ± 1.16 % | 42 ± 1.43 % | 0.81 ± 1.18 |  | 
5 | O=C(O)Cc1ccccc1Nc1c(Cl)cccc1Cl [Diclofenac, Diclofenac sodium, reference compound] | 37 ± 1.69 % | 43 ± 1.42 % | 45 ± 0.92 % | 33 ± 0.96 % | 46 ± 0.95 % | 55 ± 1.16 % | 62 ± 1.49 % | 39 ± 1.13 % |  | 32 ± 0.69 % | 38 ± 1.42 % | 39 ± 1.97 % | 33 ± 0.93 % | 45 ± 1.65 % | 52 ± 0.96 % | 60 ± 1.52 % | 39 ± 1.13 % |  |  | 1.65 ± 0.48
